From BigSolDB 2.1

CC(=O)[C@@]1(O)CC[C@H]2[C@@H]3CCC4=CC(=O)CC[C@]4(C)[C@H]3C(O)C[C@@]21C (stereo in doubt)
solubility (mole fraction)
Conditions	278.15 K	283.15 K	288.15 K	293.15 K	298.15 K	303.15 K	308.15 K	313.15 K
in DMF	0.0659	0.0722	0.0753	0.0825	0.0943	0.1	0.11	0.119
in acetone	0.00679	0.00761	0.00804	0.00859	0.0095	0.0106	0.0115	0.0123
in chloroform	0.0129	0.0134	0.0141	0.0146	0.0157	0.016	0.0172	0.0189
in methanol	0.0139	0.0147	0.0159	0.0172	0.0181	0.0206	0.0232	0.0249
in n-propanol	0.00838	0.00978	0.0112	0.0129	0.0134	0.0143	0.0157	0.0169
in water	1.39e-05	1.73e-05	2.08e-05	2.43e-05	2.77e-05	3.47e-05	3.64e-05	3.98e-05
